Series [1] addresses T1, Peroxisome proliferator-activated receptor alpha (Rattus norvegicus, UniProt P37230).
T1 sequence (P37230 whole entry): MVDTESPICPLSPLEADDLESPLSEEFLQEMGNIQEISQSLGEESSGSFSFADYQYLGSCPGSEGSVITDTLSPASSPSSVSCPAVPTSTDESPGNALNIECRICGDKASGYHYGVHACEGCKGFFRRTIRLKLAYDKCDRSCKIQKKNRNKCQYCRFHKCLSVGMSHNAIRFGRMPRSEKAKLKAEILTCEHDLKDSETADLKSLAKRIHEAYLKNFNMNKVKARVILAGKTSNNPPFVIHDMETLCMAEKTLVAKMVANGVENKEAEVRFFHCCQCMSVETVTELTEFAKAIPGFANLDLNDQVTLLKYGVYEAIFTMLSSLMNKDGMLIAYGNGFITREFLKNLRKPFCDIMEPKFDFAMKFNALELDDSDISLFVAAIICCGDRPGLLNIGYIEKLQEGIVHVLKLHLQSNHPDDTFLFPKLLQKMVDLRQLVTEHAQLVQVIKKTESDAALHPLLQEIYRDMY
Put plainly: Agonist activity at rat PPARalpha in rat H4IIE cells assessed as gene induction. The class given is functional, cell-based.

The target of series [2] is T2, Peroxisome proliferator-activated receptor delta (Homo sapiens, UniProt Q03181).
T2 sequence (Q03181 whole entry): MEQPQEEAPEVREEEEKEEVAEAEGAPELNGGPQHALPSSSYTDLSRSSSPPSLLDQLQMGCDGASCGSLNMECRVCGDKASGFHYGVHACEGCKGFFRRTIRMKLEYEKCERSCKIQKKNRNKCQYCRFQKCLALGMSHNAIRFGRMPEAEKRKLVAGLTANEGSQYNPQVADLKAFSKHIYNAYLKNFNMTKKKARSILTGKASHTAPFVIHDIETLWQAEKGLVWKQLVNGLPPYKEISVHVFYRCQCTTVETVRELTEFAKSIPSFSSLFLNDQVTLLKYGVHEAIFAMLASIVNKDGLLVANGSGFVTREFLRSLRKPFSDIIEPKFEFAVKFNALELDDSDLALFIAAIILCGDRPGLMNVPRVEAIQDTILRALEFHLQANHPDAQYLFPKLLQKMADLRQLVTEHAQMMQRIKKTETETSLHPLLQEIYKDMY
Put plainly: Agonist activity at PPARdelta expressed in HEK293 cells by GAL4 transactivation assay. The class given is functional, cell-based.

Series [3] has as its system Mus musculus. Put plainly: Reduction in insulin levels in db/db mouse plasma at 0.1 mg/kg, po after 11 days. Set-up: scale not given: the % may be the effect or the level left.
Series [4] deals with T3, Peroxisome proliferator-activated receptor gamma (Homo sapiens, UniProt P37231).
T3 sequence (P37231 whole entry): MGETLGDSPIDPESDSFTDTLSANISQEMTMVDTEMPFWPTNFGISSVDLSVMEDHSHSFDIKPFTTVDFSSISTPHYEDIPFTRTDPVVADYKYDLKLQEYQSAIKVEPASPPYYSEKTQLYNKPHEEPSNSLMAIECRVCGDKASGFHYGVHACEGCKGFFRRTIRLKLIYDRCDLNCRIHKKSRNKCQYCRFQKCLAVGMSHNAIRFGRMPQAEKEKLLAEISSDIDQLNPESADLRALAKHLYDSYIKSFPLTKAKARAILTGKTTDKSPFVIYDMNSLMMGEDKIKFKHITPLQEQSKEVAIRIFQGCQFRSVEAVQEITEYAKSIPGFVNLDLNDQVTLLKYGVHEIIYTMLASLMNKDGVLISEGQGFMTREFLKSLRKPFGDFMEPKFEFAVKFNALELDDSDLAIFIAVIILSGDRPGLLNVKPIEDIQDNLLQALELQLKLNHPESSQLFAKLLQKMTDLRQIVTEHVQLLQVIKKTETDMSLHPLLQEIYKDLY
Description: Agonist activity at PPARgamma expressed in HEK293 cells by GAL4 transactivation assay

Series [5] has as its target T4, Peroxisome proliferator-activated receptor alpha (Homo sapiens, UniProt Q07869).
T4 sequence (Q07869 whole entry): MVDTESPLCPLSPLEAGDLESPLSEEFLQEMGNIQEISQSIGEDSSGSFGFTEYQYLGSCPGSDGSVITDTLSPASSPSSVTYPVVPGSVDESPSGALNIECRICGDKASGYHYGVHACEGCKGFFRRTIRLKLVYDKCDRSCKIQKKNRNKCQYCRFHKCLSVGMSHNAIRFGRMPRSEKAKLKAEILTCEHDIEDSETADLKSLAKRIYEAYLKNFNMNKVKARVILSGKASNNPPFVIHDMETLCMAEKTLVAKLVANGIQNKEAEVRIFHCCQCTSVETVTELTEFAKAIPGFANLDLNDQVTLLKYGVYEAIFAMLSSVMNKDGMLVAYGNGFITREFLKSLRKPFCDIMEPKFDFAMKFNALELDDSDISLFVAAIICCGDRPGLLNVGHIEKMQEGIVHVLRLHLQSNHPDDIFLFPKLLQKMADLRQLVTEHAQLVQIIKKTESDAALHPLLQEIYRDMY
Put plainly: Agonist activity at PPARalpha expressed in HEK293 cells by GAL4 transactivation assay. Type of series: functional, cell-based.

Series [6] concerns Mus musculus. Nature of the series: Reduction in glucose levels in db/db mouse plasma at 0.1 mg/kg, po after 11 days. Also noted: scale not given: the % may be the effect or the level left.
Series [7] deals with Mus musculus. Nature of the series: Reduction in triglyceride levels in db/db mouse plasma at 0.1 mg/kg, po after 11 days. Set-up: scale not given: the % may be the effect or the level left.
Series [8] concerns the target T5, Peroxisome proliferator-activated receptor gamma (Homo sapiens) (UniProt P37231).
T5 sequence (whole entry): T3 sequence (P37231 whole entry)
Nature of the series: Agonist activity at PPARgamma expressed in HEK293 cells assessed as aP2 gene induction relative to BRL-49653. Type of series: functional, cell-based.

Series [9] is described as follows: Metabolic stability in human liver microsomes at 5 uM. Type of series: ADME, Microsome. In general terms: Microsomes from liver hold many membrane-bound enzymes, among them those of drug oxidation.
Series [10] can be described thus: AUC in Sprague-Dawley rat at 3 mg/kg, iv or 30 mg/kg, po. Type of series: ADME, organism-based. Particulars: plasma.
Series [11] concerns Mus musculus. Nature of the series: Reduction in glucose levels in db/db mouse plasma at 1 mg/kg, po after 11 days. Also noted: scale not given: the % may be the effect or the level left.
A short description of series [12]: Cmax in Sprague-Dawley rat at 3 mg/kg, iv or 30 mg/kg, po. The class given is ADME, organism-based. Particulars: in vivo.
Series [13] in a line: Half life at terminal phase in Sprague-Dawley rat at 30 mg/kg, po. The class given is ADME, organism-based. Also noted: dose 30 mg/kg, route oral. Particulars: in vivo, read-out: beta t1/2 (converted).
Series [14] in a line: Oral bioavailability in Sprague-Dawley rat at 30 mg/kg. The class given is ADME, organism-based. Particulars: in vivo.
Series [15] has as its system Mus musculus. Put plainly: Reduction in insulin levels in db/db mouse plasma at 1 mg/kg, po after 11 days. Also noted: scale not given: the % may be the effect or the level left.
Series [16] relates to Mus musculus. Nature of the series: Reduction in triglyceride levels in db/db mouse plasma at 1 mg/kg, po after 11 days. Also noted: scale not given: the % may be the effect or the level left.
Series [17] in a line: Total clearance in Sprague-Dawley rat at 3 mg/kg, iv or 30 mg/kg, po. The class given is ADME, organism-based. Particulars: in vivo.
The test system of series [18] is Mus musculus. Nature of the series: Reduction in body weight of db/db mouse at 1 mg/kg, po after 11 days. Set-up: scale not given: the % may be the effect or the level left.

This is an account of results in ChEMBL document CHEMBL1141364, “Design and synthesis of indane-ureido-thioisobutyric acids: A novel class of PPARalpha agonists” (Bioorg Med Chem Lett, 2007).

Structures are written as SMILES.

Broadly, the EC50 is the midpoint of the concentration-response curve. Usually AUC stands for the area under the concentration-time curve, a measure of exposure. One may read the Cmax as the maximum level reached in the sampled fluid or tissue. As a reminder, the bioavailability is dose-corrected exposure relative to a reference, in per cent.

Regarding `CCN(C(=O)Nc1ccc(OC(F)(F)F)cc1)[C@@H]1Cc2ccc(SC(C)(C)C(=O)O)cc2C1`, the 50% effective concentration (EC50) in series [1] is 2 nM; in series [2], 2100 nM; in series [4] it was greater than 10000 nM; in series [5], 170 nM. Also, the Activity in the series with Mus musculus [3] turned out to be 49%; with Mus musculus [6] it was 16%; in the series on Mus musculus [7], 43%; in [8] it was 3.8%.
As for `CCCCCCCN(CCc1ccc(SC(C)(C)C(=O)O)cc1)C(=O)Nc1ccc(F)cc1F` [GSK-9578], the EC50 in series [1] came to 166 nM; in [2], 150 nM. Further, the Activity in [8] was 0.46%.
`CCN(C(=O)Nc1ccc(OC(F)(F)F)cc1)C1Cc2ccc(SC(C)(C)C(=O)O)cc2C1` (configuration not stated): the EC50 in [1] came to 33 nM. Further, the half-life at 5 µM in [9] turned out to be 1.67 h. In [10], this molecule gave an AUC of 290 µg·h/mL. Besides, the Activity in the series with Mus musculus [11] came to 60%; in the series on Mus musculus [15], 53%; with Mus musculus [16], 56%; in the series with Mus musculus [18], 59%. The molecule also gave a Cmax in [12] of 39300 ng/mL. Further, in [13], the half-life was 4 h. The molecule further returned a bioavailability in series [14] of 59%. The molecule further yielded a clearance in series [17] of 0.1 mL/min/kg.
